Data published in the supplement of paper PMC5908809.

How the values were obtained:
Test in all cases: relative IC50 (inflection point of fitted viability curve, relative to fitted max inhibition); higher = less sensitive
Conditions in all cases: 72 h
DERL-7 (IL-2 2.5 ng/mL) = test system: DERL-7 (IL-2 2.5 ng/mL)
Procedure: (§1)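 Drug sensitivity and resistance testing: 5 concentrations over a 10,000-fold range, 72 h at 37 °C, viability by CellTiter-Glo normalised to DMSO and benzethonium chloride controls. IC50 is the inflection point of a logistic fit (min fixed at 0, max fitted), so it is relative to the fitted maximal inhibition. Kept only where fitted max inhibition is at least 50%.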

IMC-1 (IL-2 20 ng/mL) = test system: IMC-1 (IL-2 20 ng/mL)
Procedure: as §1

KAI3 (IL-2 2.5 ng/mL) = test system: KAI3 (IL-2 2.5 ng/mL)
Procedure: as §1

KHYG-1 (IL-2 2.5 ng/mL) = test system: KHYG-1 (IL-2 2.5 ng/mL)
Procedure: as §1

NK-92 (IL-2 2.5 ng/mL) = test system: NK-92 (IL-2 2.5 ng/mL)
Procedure: as §1

NK-YS (IL-2 2.5 ng/mL) = test system: NK-YS (IL-2 2.5 ng/mL)
Procedure: as §1

NKL (IL-2 2.5 ng/mL) = test system: NKL (IL-2 2.5 ng/mL)
Procedure: as §1

SNK-6 (IL-2 2.5 ng/mL) = test system: SNK-6 (IL-2 2.5 ng/mL)
Procedure: as §1

YT (IL-2 2.5 ng/mL) = test system: YT (IL-2 2.5 ng/mL)
Procedure: as §1

[1] = test system: normal primary NK cells, pool 1 (3 donors) (IL-2 2.5 ng/mL)
Procedure: as §1

[2] = test system: normal primary NK cells, pool 1 (3 donors), resting (IL-2 0 ng/mL)
Procedure: as §1

[3] = test system: normal primary NK cells, pool 2 (3 donors) (IL-2 2.5 ng/mL)
Procedure: as §1

[4] = test system: normal primary NK cells, pool 3 (3 donors) (IL-2 2.5 ng/mL)
Procedure: as §1

Structure (SMILES)	relative IC50 (DERL-7 (IL-2 2.5 ng/mL)) [nM]	relative IC50 (IMC-1 (IL-2 20 ng/mL)) [nM]	relative IC50 (KAI3 (IL-2 2.5 ng/mL)) [nM]	relative IC50 (KHYG-1 (IL-2 2.5 ng/mL)) [nM]	relative IC50 (NK-92 (IL-2 2.5 ng/mL)) [nM]	relative IC50 (NK-YS (IL-2 2.5 ng/mL)) [nM]	relative IC50 (NKL (IL-2 2.5 ng/mL)) [nM]	relative IC50 (SNK-6 (IL-2 2.5 ng/mL)) [nM]	relative IC50 (YT (IL-2 2.5 ng/mL)) [nM]	relative IC50 [1] [nM]	relative IC50 [2] [nM]	relative IC50 [3] [nM]	relative IC50 [4] [nM]
COC(=O)c1ccc2c(c1)NC(=O)/C2=C(\Nc1ccc(N(C)C(=O)CN2CCN(C)CC2)cc1)c1ccccc1 [Nintedanib]	1210	3980	1850	1720	1070	1700	902	4280	2580	1200	1010	1580	2730
O=C(/C=C/c1cccnc1)NCCCCC1CCN(C(=O)c2ccccc2)CC1 [Daporinad]	1.27	3.61	3.88	3.01	6.07	0.77	2.57	0.75	6.27	0.52	0.29	0.63	0.87
CN(c1ncccc1CNc1nc(Nc2ccc3c(c2)CC(=O)N3)ncc1C(F)(F)F)S(C)(=O)=O	2000	2960	1930	1090	3040	1310	1540	2870	1530	2320	4770	3440	3740
COc1ccc(C[C@H](NC(=O)[C@H](C)NC(=O)CN2CCOCC2)C(=O)N[C@@H](Cc2ccccc2)C(=O)C2(C)CO2)cc1 (stereo in doubt) [ONX-0914]	18.7	158	18.1	142	24.4	38.1	29	62.6	64.7	30.6	20.1	27.4	61.8
C[C@@H]1C[C@H]2O[C@@H]2/C=C\C=C\C(=O)Cc2c(Cl)c(O)cc(O)c2C(=O)O1 [Radicicol]	37.3	310	72.1	209	130	198	134	81.8	423	126	520	75.2	132
O=C1NC(=O)/C(=C/c2ccc3nccc(-c4ccncc4)c3c2)S1	543		846	681	1200	810	644	1100	529	749	116	1250	1650
O=c1cc(N2CCOCC2)oc2c(-c3ccccc3)cccc12	5890	35200	11500	13600	12300	9060	5080	4830	8330	13400	6670	11700	16800
CN(c1ccccc1CNc1nc(Nc2ccc3c(c2)CC(=O)N3)ncc1C(F)(F)F)S(C)(=O)=O	609	1130	1380	553	1710	1030	715	1600	1470	1130	4290	1720	1950
CN1CC[C@H](c2c(O)cc(O)c3c(=O)cc(-c4ccccc4Cl)oc23)[C@H](O)C1 [Alvocidib]	174	410	55.3	136	117	142	126	8.41	133	182	370	150	164
Nc1ncnc2c1nc(N)n2[C@@H]1O[C@H](CO)[C@@H](O)[C@H]1O [8-amino-adenosine]	489	1080	320	836	431	757	360	68.1	862	6680	13100	5810	6780
Cc1[nH]c2ccccc2c1CCNCc1ccc(/C=C/C(=O)NO)cc1 [Panobinostat]	12.5	29.9	5.94	16.3	13.4	17.4	8.13	14.3	21.2	12.9	5.89	7.38	13.5
Nc1ncnc2c1nc(Cl)n2[C@@H]1O[C@H](CO)[C@@H](O)[C@H]1O [8-chloro-adenosine]	641	19300	579	2820	2610	1440	4720	330	1870	5980	5340	6010	7030
Cc1c2oc3c(C)ccc(C(=O)N[C@@H]4C(=O)N[C@H](C(C)C)C(=O)N5CCC[C@H]5C(=O)N(C)CC(=O)N(C)[C@@H](C(C)C)C(=O)O[C@@H]4C)c3nc-2c(C(=O)N[C@@H]2C(=O)N[C@H](C(C)C)C(=O)N3CCC[C@H]3C(=O)N(C)CC(=O)N(C)[C@@H](C(C)C)C(=O)O[C@@H]2C)c(N)c1=O [Dactinomycin]	1.43	12.2	4.77	2.49	24.7	0.55	0.68	0.27	0.98	13.4	4.39	5.98	12.7
